Article PMC11731258, “The structural basis for high-affinity c-di-GMP binding to the GSPII-B domain of the traffic ATPase PilF from Thermus thermophilus” (The Journal of Biological Chemistry, 2024)

Molecular target: T1, PilF159-302 (GSPII-B domain) (Thermus thermophilus, UniProt Q5SLC9)
T1 sequence (Q5SLC9 159-302): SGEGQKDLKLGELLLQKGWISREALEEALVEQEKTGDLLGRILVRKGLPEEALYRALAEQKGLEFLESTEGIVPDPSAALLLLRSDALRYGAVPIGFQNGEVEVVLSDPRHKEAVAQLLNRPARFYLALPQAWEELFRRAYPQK
Experiment: ITC binding to PilF159-302
Experimental: To assess the ligand-binding capabilities of the various PilF constructs, triplicates of ITC measurements were recorded for each construct. The measurements were carried out using a MicroCal ITC200 (Malvern Panalytical). […] All protein samples were extensively dialyzed against the sample buffer and the buffer used for dialysis was used to dilute protein and c-di-GMP samples in preparation for the ITC measurements. Each measurement was conducted using the following protocol. In total, 39.8 μl c-di-GMP were titrated to 270 μl protein in 20 separate injections in 180 s intervals with a stirring speed of 750 rpm. After an initial delay of 120 s, the first injection of 0.2 μl c-di-GMP with a duration of 0.4 s was followed by 19 injections of 2 μl with a duration of 4 s. During the measurement, the feedback mode was set to high and the reference power to 11 μcal s^−1. To optimize precision of the measurements, protein and c-di-GMP concentrations were adjusted to the binding capabilities of the respective constructs and ranged from 5 to 200 μM for protein and 50 to 2000 μM for c-di-GMP. All thermograms were processed using Origin 7.0 (OriginLab) using a one-site– or two-site–binding model dependent on the number of expected binding events.

SMILES: O=c1[nH]cnc2c1ncn2[C@@H]1O[C@@H]2COP(=O)(O)O[C@H]3[C@@H](O)[C@H](n4cnc5c(=O)[nH]cnc54)O[C@@H]3COP(=O)(O)O[C@H]2[C@H]1O [c-di-IMP, cyclic dimeric inosine-monophosphate]
- Kd: 60 ± 1 nM
- N (ITC, 20 °C): 0.74 ± 0.03
- ΔH (ITC, 20 °C): -7.103 ± 0.234 kcal/mol
- ΔS (ITC, 20 °C): 8.8 ± 0.8 cal/mol/deg
